# Patent US10695275B2, “Anti-aging composition” (NEOPHARM CO., LTD., priority 2016, dated 2020)
# Columns and labels:
# Assay type in all cases: cell-based
# [1] = tested on: human-derived fibroblasts; assay: toxicity / cell proliferation in human-derived fibroblasts; conditions: concentration of 20 uM
# [2] = tested on: Artificial skin (EpiDermFT); assay: collagen fiber staining (Masson's Trichrome) in artificial skin; conditions: 0.1%, 100 μl applied on the surface, 24 hours
# Excerpt: When photo-aging of the skin proceeds by ultraviolet rays, a collagen fiber network in an epidermis-dermis junction is damaged. Thus, the amount and form of collagen fiber is used as an indicator of skin photo-aging. The skin tissue of a hairless mouse which was irradiated with ultraviolet rays after N-(2-hydroxyethyl)octanamide was applied, was stained with Masson's Trichrome, observed using an optical microscope (IX71, Olympus, JPN), and then photographed using a digital camera (DP71, Olympus, JPN).
# Artificial skin (EpiDermFT™ from MatTek, Ashland, USA) was purchased, and stabilized in an exclusive medium (EFT-400) for 18 hours. On the surface of the artificial skin, 100 μl of N-(2-hydroxyethyl)octanamide as an effective component (anti-aging composition) at a concentration of 0.1% was applied. After 24 hours, the artificial skin tissue was immobilized with 10% formaldehyde, and embedded with paraffin, and a tissue sliced at 5 μm was stained with Masson's Trichrome (M&T), thereby observing a staining degree of collagen fiber. The results were illustrated in the following FIG. 2.
# human fibroblasts = assay: type-1 collagen synthesis in human fibroblasts (PICP EIA kit); conditions: 24 hours
# Protocol: N-(2-hydroxyethyl)octanamide was added to a culture medium of human fibroblasts (DMEM medium, 10% fetal bovine serum, 1% antibiotics) to confirm the effect of accelerating type-1 collagen synthesis in a cell level. The measurement of the synthesized collagen was qualified using a procollagen type I C-peptide enzyme immunoassay kit (PICP EIA kit).
# The human fibroblast culture medium was used to aliquot the human-derived fibroblasts (human fibroblasts) into 6 wells at 2×10^5 cell/well. After cell adhesion was confirmed, the culture medium was treated with 2 ml of N-(2-hydroxyethyl)octanamide as an effective component (anti-aging composition) per each well, at a concentration of 20 uM. After the culture medium was cultured in an incubator under a condition of 37° C. and 5% CO2 for 24 hours, type-1 collagen which is related to a wrinkle forming factor was measured in a cell extract. Here, the concentration of the anti-aging composition is within a range being not toxic and not deriving cell proliferation, when treating human-derived fibroblasts. […]
# The effect of accelerating type-1 collagen synthesis was confirmed in the same manner as in Example 1, except that the effective component was not used (a negative control). In addition, type-1 collagen synthesis ability relative to the negative control was calculated as a ratio, and represented by a rate of increase. […]
compound,measurement,setting,value
"CCCCCCCC(=O)NCCO [Example 1, N-(2-hydroxyethyl)octanamide]",toxicity to human-derived fibroblasts,[1],not toxic
same,staining degree of collagen fiber (aniline blue) in the dermal layer under the epidermis,[2],strongly stained
same,Rate of increase (%) of type-1 collagen synthesis relative to negative control,"human fibroblasts; 20 uM, ratio to Comparative Example 1 (non-treated)",750%
same,type-1 collagen concentration (20 uM),"human fibroblasts; human fibroblasts treated at 20 uM, measured in cell extract",0.015
